Measured values published in US20230120564A1, “PYRIDO[3,4-D]PYRIMIDINE DERIVATIVE AND THERAPEUTIC PHARMACEUTIC COMPOSITION COMPRISING SAME” (KOREA INSTITUTE OF SCIENCE AND TECHNOLOGY, priority 2020, published 2023).

Columns and labels:
Assay in all cases: full kinase panel biochemical assay
EPHB1 = EPHB1 (Homo sapiens, UniProt P54762); conditions: single concentration of 1 μM; read-out: percent inhibition of EPHB1
Summary of the method: (§1)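 Compound is added at 1 μM to each kinase of the panel. Enzyme activity is then measured biochemically. Inhibition is expressed as a percentage, with residual activity (%) calculated from it.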

ARAF = ARAF (Homo sapiens, UniProt P10398); conditions: single concentration of 1 μM; read-out: percent inhibition of ARAF
Summary of the method: as §1

EPHA3 = EPHA3 (Homo sapiens, UniProt P29320); conditions: single concentration of 1 μM; read-out: percent inhibition of EPHA3
Summary of the method: as §1

NEK5 = NEK5 (Homo sapiens, UniProt Q6P3R8); conditions: single concentration of 1 μM; read-out: percent inhibition of NEK5
Summary of the method: as §1

SRPK1 = SRPK1 (Homo sapiens, UniProt Q96SB4); conditions: single concentration of 1 μM; read-out: percent inhibition of SRPK1
Summary of the method: as §1

EPHB3 = EPHB3 (Homo sapiens, UniProt P54753); conditions: single concentration of 1 μM; read-out: percent inhibition of EPHB3
Summary of the method: as §1

TXK = TXK (Homo sapiens, UniProt P42681); conditions: single concentration of 1 μM; read-out: percent inhibition of TXK
Summary of the method: as §1

MEKK1 = MEKK1 (Homo sapiens, UniProt Q13233); conditions: single concentration of 1 μM; read-out: percent inhibition of MEKK1
Summary of the method: as §1

EPHA5 = EPHA5 (Homo sapiens, UniProt P54756); conditions: single concentration of 1 μM; read-out: percent inhibition of EPHA5
Summary of the method: as §1

PEAK1 = PEAK1 (Homo sapiens, UniProt Q9H792); conditions: single concentration of 1 μM; read-out: percent inhibition of PEAK1
Summary of the method: as §1

FMS = FMS (Homo sapiens, UniProt P07333); conditions: single concentration of 1 μM; read-out: percent inhibition of FMS
Summary of the method: as §1

SIK2 = SIK2 (Homo sapiens, UniProt Q9H0K1); conditions: single concentration of 1 μM; read-out: percent inhibition of SIK2
Summary of the method: as §1

FLT1/VEGFR1 = FLT1/VEGFR1 (Homo sapiens, UniProt P17948); conditions: single concentration of 1 μM; read-out: percent inhibition of FLT1/VEGFR1
Summary of the method: as §1

P38b/MAPK11 = P38b/MAPK11 (Homo sapiens, UniProt Q15759); conditions: single concentration of 1 μM; read-out: percent inhibition of P38b/MAPK11
Summary of the method: as §1

BMX/ETK = BMX/ETK (Homo sapiens, UniProt P51813); conditions: single concentration of 1 μM; read-out: percent inhibition of BMX/ETK
Summary of the method: as §1

Sequence of EPHA5 (P54756 25-1037): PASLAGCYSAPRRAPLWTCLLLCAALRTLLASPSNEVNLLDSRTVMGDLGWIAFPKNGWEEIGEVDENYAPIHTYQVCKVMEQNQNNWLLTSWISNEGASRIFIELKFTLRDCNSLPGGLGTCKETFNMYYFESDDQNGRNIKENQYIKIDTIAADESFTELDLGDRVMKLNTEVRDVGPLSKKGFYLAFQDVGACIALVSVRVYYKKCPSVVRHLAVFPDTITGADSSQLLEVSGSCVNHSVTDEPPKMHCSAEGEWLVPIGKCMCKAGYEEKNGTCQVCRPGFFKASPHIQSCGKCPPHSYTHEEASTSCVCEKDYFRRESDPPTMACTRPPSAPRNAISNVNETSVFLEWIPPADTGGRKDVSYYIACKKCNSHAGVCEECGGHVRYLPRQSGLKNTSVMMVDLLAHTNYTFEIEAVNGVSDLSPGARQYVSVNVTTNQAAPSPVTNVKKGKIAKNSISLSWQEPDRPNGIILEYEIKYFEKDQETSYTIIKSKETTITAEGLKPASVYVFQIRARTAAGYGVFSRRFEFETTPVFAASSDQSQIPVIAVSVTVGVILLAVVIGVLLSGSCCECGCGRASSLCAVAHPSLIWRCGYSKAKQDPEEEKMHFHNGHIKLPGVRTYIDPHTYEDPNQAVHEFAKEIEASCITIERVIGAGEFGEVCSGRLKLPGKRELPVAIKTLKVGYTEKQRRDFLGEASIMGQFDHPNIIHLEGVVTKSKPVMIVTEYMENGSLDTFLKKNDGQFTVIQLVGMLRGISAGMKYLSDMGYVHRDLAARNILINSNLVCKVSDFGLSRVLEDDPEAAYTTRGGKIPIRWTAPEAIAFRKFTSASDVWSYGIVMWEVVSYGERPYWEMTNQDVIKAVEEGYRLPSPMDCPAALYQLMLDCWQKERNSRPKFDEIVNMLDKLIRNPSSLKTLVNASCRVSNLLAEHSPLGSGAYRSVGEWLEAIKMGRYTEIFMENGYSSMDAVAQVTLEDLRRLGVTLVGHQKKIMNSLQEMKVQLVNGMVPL
Sequence of EPHB1 (P54762 18-984): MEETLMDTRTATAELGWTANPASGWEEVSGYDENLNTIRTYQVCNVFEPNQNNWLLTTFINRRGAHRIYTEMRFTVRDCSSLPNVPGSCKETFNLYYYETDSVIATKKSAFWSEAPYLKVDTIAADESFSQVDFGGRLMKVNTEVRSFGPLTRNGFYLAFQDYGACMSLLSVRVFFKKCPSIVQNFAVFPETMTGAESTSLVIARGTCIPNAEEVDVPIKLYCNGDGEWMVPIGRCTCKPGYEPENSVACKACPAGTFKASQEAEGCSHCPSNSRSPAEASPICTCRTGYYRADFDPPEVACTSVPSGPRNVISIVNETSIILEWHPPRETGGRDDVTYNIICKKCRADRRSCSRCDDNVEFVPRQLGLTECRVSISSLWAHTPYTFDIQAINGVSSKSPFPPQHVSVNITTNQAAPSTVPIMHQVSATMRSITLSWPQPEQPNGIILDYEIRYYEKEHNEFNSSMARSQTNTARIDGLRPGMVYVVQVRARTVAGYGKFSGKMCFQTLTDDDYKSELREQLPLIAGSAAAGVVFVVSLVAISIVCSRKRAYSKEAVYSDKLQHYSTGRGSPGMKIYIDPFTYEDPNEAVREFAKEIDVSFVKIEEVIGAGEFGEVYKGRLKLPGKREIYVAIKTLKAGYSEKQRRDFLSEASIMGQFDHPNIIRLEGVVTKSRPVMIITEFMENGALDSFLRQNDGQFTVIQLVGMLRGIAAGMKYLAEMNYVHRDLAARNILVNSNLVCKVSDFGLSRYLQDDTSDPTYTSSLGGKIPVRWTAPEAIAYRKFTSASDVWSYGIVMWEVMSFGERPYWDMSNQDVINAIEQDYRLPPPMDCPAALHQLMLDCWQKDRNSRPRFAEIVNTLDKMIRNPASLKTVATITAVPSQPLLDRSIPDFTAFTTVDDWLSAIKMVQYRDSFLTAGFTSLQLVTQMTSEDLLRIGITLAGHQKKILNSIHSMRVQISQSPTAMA
Sequence of P38b/MAPK11 (Q15759 whole entry): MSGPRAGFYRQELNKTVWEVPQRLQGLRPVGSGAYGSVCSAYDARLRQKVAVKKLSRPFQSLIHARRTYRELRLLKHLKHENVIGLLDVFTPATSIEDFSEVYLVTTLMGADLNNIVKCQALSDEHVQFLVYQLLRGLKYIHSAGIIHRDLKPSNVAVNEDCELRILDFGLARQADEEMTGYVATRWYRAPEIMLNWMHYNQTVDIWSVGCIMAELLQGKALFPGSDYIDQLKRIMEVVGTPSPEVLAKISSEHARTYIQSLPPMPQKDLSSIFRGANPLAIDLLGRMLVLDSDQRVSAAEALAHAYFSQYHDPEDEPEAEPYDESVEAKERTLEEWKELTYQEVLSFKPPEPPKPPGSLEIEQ
Sequence of MEKK1 (Q13233 whole entry): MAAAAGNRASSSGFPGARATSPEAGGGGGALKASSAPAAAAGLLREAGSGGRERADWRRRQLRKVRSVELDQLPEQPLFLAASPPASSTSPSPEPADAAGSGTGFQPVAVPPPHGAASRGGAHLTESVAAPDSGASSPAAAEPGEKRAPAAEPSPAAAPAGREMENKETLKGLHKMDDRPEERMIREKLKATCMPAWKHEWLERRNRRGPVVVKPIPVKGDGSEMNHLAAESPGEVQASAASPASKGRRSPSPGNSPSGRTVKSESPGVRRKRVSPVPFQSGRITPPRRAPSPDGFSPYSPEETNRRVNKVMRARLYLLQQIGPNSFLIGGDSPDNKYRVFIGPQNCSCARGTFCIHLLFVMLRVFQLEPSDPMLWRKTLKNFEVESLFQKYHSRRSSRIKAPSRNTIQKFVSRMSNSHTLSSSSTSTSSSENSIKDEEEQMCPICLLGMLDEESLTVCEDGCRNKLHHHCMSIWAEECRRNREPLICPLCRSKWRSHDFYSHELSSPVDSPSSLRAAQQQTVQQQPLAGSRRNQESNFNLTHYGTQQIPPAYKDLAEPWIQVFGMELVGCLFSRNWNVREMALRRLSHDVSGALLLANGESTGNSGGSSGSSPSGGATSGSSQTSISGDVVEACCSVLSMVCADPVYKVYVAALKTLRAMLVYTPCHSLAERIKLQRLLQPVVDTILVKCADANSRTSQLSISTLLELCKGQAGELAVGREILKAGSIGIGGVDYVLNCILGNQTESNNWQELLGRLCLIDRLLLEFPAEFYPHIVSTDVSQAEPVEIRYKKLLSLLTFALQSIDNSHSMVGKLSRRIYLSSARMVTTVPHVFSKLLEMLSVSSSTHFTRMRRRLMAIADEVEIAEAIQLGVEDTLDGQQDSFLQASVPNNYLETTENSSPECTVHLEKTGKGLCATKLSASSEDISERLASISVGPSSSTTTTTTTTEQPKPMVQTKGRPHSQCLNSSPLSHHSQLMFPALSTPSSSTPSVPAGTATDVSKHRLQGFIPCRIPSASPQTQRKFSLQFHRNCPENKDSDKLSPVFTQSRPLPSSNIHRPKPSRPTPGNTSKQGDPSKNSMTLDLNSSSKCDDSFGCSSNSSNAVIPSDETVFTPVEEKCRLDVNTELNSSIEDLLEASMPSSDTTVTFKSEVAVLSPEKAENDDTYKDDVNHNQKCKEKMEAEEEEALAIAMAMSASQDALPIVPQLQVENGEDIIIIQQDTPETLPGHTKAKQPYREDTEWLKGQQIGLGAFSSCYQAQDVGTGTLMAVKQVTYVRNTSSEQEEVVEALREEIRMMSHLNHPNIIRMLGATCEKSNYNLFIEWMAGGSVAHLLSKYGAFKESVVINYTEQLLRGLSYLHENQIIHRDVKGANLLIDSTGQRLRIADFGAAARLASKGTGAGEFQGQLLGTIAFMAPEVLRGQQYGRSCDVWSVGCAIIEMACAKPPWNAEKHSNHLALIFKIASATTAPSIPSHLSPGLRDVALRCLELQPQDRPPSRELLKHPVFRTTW
Sequence of FMS (P07333 20-972): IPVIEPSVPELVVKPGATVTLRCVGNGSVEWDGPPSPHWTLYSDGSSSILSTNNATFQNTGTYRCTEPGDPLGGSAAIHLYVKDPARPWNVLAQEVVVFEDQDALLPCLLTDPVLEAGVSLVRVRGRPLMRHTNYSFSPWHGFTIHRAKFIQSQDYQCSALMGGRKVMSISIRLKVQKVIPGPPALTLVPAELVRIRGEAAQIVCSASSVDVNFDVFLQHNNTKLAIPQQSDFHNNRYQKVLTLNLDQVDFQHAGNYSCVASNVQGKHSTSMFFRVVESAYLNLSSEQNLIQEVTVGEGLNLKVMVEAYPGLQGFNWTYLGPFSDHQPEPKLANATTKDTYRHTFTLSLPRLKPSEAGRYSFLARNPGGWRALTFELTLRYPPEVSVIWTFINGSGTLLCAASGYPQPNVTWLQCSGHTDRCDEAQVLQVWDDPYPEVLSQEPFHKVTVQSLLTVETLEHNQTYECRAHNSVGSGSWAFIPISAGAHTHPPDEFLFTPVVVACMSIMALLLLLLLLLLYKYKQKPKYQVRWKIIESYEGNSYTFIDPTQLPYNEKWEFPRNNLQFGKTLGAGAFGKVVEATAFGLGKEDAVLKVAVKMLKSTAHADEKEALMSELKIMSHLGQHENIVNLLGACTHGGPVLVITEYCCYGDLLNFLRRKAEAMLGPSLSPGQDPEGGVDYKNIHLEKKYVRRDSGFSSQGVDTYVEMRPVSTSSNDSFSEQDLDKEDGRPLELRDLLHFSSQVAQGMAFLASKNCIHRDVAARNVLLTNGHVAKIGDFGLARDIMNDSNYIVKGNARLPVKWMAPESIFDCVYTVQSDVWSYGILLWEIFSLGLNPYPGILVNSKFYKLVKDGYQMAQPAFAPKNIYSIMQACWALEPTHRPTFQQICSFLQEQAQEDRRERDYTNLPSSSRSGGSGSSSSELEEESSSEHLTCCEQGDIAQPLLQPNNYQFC

inhibition at 1 µM (EPHB1): ≥ 70%
inhibition at 1 µM (ARAF): ≥ 70%
inhibition at 1 µM (EPHA3): ≥ 70%
inhibition at 1 µM (NEK5): ≥ 70%
inhibition at 1 µM (SRPK1): ≥ 70%
inhibition at 1 µM (EPHB3): ≥ 70%
inhibition at 1 µM (TXK): ≥ 70%
inhibition at 1 µM (MEKK1): ≥ 70%
inhibition at 1 µM (EPHA5): ≥ 70%
inhibition at 1 µM (PEAK1): ≥ 70%
inhibition at 1 µM (FMS): ≥ 70%
inhibition at 1 µM (SIK2): ≥ 70%
inhibition at 1 µM (FLT1/VEGFR1): ≥ 70%
inhibition at 1 µM (P38b/MAPK11): ≥ 70%
inhibition at 1 µM (BMX/ETK): ≥ 70%
SMILES: Cc1ccc(Nc2ncc3cc(-c4cc(NC(=O)c5cccc(C(F)(F)F)c5)ccc4C)ncc3n2)cn1 [Compound No. 4, N-(4-methyl-3-(2-((6-methylpyridin-3-yl)amino)pyrido[3,4-d]pyrimidin-6-yl)phenyl)-3-(trifluoromethyl)benzamide]
